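96-well plates; 48 h exposure; 5 concentrations. Endpoints by linear interpolation between flanking doses. Not reached: highest tested concentration assigned. The concentration for 50% growth inhibition is given as GI50. At the TGI there is no net growth.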
Experiments:
Assay in all cases: DTP human tumour cell line panel, 48 h
OVCAR-4 ovarian = test system: OVCAR-4 ovarian
CCRF-CEM leukemia = test system: CCRF-CEM leukemia
MDA-MB-435 = test system: MDA-MB-435
RXF 393 renal = test system: RXF 393 renal
EKVX NSCLC = test system: EKVX NSCLC
BT-549 breast = test system: BT-549 breast
OVCAR-8 ovarian = test system: OVCAR-8 ovarian
NCI-H522 lung = test system: NCI-H522 lung
MOLT-4 leukemia = test system: MOLT-4 leukemia
HOP-62 NSCLC = test system: HOP-62 NSCLC
PC-3 prostate = test system: PC-3 prostate
UO-31 renal = test system: UO-31 renal
NCI-H226 lung = test system: NCI-H226 lung
MDA-MB-231 breast = test system: MDA-MB-231 breast
SW-620 colon = test system: SW-620 colon
A498 renal = test system: A498 renal
MALME-3M melanoma = test system: MALME-3M melanoma
NCI/ADR-RES ovarian = test system: NCI/ADR-RES ovarian
SK-MEL-28 melanoma = test system: SK-MEL-28 melanoma
SF-539 CNS = test system: SF-539 CNS
KM12 colon = test system: KM12 colon
K-562 leukemia = test system: K-562 leukemia
MCF7 breast = test system: MCF7 breast
SN12C renal = test system: SN12C renal
TK-10 renal = test system: TK-10 renal
SK-MEL-2 melanoma = test system: SK-MEL-2 melanoma
HL-60(TB) leukemia = test system: HL-60(TB) leukemia
LOX IMVI melanoma = test system: LOX IMVI melanoma
CAKI-1 renal = test system: CAKI-1 renal
SR leukemia = test system: SR leukemia
COLO 205 colon = test system: COLO 205 colon
NCI-H23 lung = test system: NCI-H23 lung
IGROV1 ovarian = test system: IGROV1 ovarian
SNB-75 CNS = test system: SNB-75 CNS
UACC-257 melanoma = test system: UACC-257 melanoma
SK-MEL-5 melanoma = test system: SK-MEL-5 melanoma
NCI-H460 lung = test system: NCI-H460 lung
UACC-62 melanoma = test system: UACC-62 melanoma
OVCAR-5 ovarian = test system: OVCAR-5 ovarian
HS 578T breast = test system: HS 578T breast
SNB-19 CNS = test system: SNB-19 CNS
SF-268 CNS = test system: SF-268 CNS
RPMI-8226 leukemia = test system: RPMI-8226 leukemia
SK-OV-3 ovarian = test system: SK-OV-3 ovarian
T-47D breast = test system: T-47D breast
HT29 colon = test system: HT29 colon
786-0 renal = test system: 786-0 renal
HOP-92 NSCLC = test system: HOP-92 NSCLC
HCC-2998 colon = test system: HCC-2998 colon
ACHN renal = test system: ACHN renal
OVCAR-3 ovarian = test system: OVCAR-3 ovarian
U251 CNS = test system: U251 CNS
A549 NSCLC = test system: A549 NSCLC
HCT-116 colon = test system: HCT-116 colon
DU-145 prostate = test system: DU-145 prostate
HCT-15 colon = test system: HCT-15 colon
SF-295 CNS = test system: SF-295 CNS

## O=C(/C=C/c1cccnc1)c1ccccc1
OVCAR-4 ovarian
  GI50: 13 µM
  TGI: 26.5 µM
CCRF-CEM leukemia
  GI50: 3.2 µM
  TGI: 9.91 µM
MDA-MB-435
  GI50: 12.4 µM
  TGI: 26.7 µM
RXF 393 renal
  GI50: 10.9 µM
  TGI: 23.2 µM
EKVX NSCLC
  GI50: 14.1 µM
  TGI: 27.7 µM
BT-549 breast
  GI50: 16 µM
  TGI: 29.9 µM
OVCAR-8 ovarian
  GI50: 12.2 µM
  TGI: 25.9 µM
NCI-H522 lung
  GI50: 1.67 µM
  TGI: 4.65 µM
MOLT-4 leukemia
  GI50: 4.32 µM
  TGI: 20.2 µM
HOP-62 NSCLC
  GI50: 13.7 µM
  TGI: 26.8 µM
PC-3 prostate
  GI50: 11 µM
  TGI: 26.5 µM
UO-31 renal
  GI50: 11.4 µM
  TGI: 25.5 µM
NCI-H226 lung
  GI50: 14.6 µM
  TGI: 28.1 µM
MDA-MB-231 breast
  GI50: 12.9 µM
  TGI: 28.3 µM
SW-620 colon
  GI50: 1.92 µM
  TGI: 4.21 µM
A498 renal
  GI50: 11.7 µM
  TGI: 23.9 µM
MALME-3M melanoma
  GI50: 15.7 µM
  TGI: 35.9 µM
NCI/ADR-RES ovarian
  GI50: 14.3 µM
  TGI: 36 µM
SK-MEL-28 melanoma
  GI50: 13.1 µM
  TGI: 25.8 µM
SF-539 CNS
  GI50: 13.3 µM
  TGI: 28.6 µM
KM12 colon
  GI50: 2.33 µM
  TGI: 6.87 µM
K-562 leukemia
  GI50: 2.85 µM
  TGI: 8.53 µM
MCF7 breast
  GI50: 2.92 µM
  TGI: 12.4 µM
SN12C renal
  GI50: 12.2 µM
  TGI: 25.9 µM
TK-10 renal
  GI50: 13.9 µM
  TGI: 27.1 µM
SK-MEL-2 melanoma
  GI50: 13.5 µM
  TGI: 27 µM
HL-60(TB) leukemia
  GI50: 7.02 µM
  TGI: 28.8 µM
LOX IMVI melanoma
  GI50: 1.86 µM
  TGI: 3.62 µM
CAKI-1 renal
  GI50: 7.21 µM
  TGI: 20.6 µM
SR leukemia
  GI50: 2 µM
  TGI: 6.21 µM
COLO 205 colon
  GI50: 13.9 µM
  TGI: 28.8 µM
NCI-H23 lung
  GI50: 17.3 µM
  TGI: 39.5 µM
IGROV1 ovarian
  GI50: 4.97 µM
  TGI: 25.6 µM
SNB-75 CNS
  GI50: 15.6 µM
  TGI: 34.6 µM
UACC-257 melanoma
  GI50: 10.4 µM
  TGI: 22.7 µM
SK-MEL-5 melanoma
  GI50: 14.3 µM
  TGI: 27.5 µM
NCI-H460 lung
  GI50: 7.07 µM
  TGI: 21.2 µM
UACC-62 melanoma
  GI50: 5.14 µM
  TGI: 19.2 µM
OVCAR-5 ovarian
  GI50: 14.7 µM
  TGI: 33.3 µM
HS 578T breast
  GI50: 10.5 µM
  TGI: 32.7 µM
SNB-19 CNS
  GI50: 11.7 µM
  TGI: 25.2 µM
SF-268 CNS
  GI50: 14.4 µM
  TGI: 30 µM
RPMI-8226 leukemia
  GI50: 2.46 µM
  TGI: 6.24 µM
SK-OV-3 ovarian
  GI50: 14.6 µM
  TGI: 27.9 µM
T-47D breast
  GI50: 12.4 µM
  TGI: 28.6 µM
HT29 colon
  GI50: 2.31 µM
  TGI: 5.92 µM
786-0 renal
  GI50: 7.9 µM
  TGI: 21.4 µM
HOP-92 NSCLC
  GI50: 4.62 µM
  TGI: 19.2 µM
HCC-2998 colon
  GI50: 14.9 µM
  TGI: 29.1 µM
ACHN renal
  GI50: 4.51 µM
  TGI: 17.1 µM
OVCAR-3 ovarian
  GI50: 4.25 µM
  TGI: 15.7 µM
U251 CNS
  GI50: 3.85 µM
  TGI: 15.1 µM
A549 NSCLC
  GI50: 17.2 µM
  TGI: 34.2 µM
HCT-116 colon
  GI50: 2.14 µM
  TGI: 5.83 µM
DU-145 prostate
  GI50: 13.9 µM
  TGI: 26.9 µM
HCT-15 colon
  GI50: 4.1 µM
  TGI: 20.2 µM
SF-295 CNS
  GI50: 14.3 µM
  TGI: 29.3 µM

— PubChem BioAssay (NCI)
